Values of other authors in patent publication US20140194454A1, “COMBINATIONS OF TROSPIUM AND SALIVARY STIMULANTS FOR THE TREATMENT OF OVERACTIVE BLADDER” (TheraVida, Inc., priority 2011, published 2014).

Conditions: 5 mg of pilocarpine

CC[C@@H]1C(=O)OC[C@@H]1Cc1cncn1C [pilocarpine]
time of maximum saliva output after administration: about 30 minutes
